Values of other authors in patent publication US20110257197A1 (Nanjing Cavendish Bio-Engineering Technology Co., Ltd., priority 2008, published 2011).
In brackets after ≈: the same amount, converted by molar mass. Entries after “also recorded” stand apart in the source; their conditions may differ. Like-named read-outs stand apart in the source and are kept apart here.

Assays:
[1] = system: rat; settings: i.v.
[2] = system: mice; settings: i.v.
[3] = in vivo
[4] = system: mice
[5] = system: rats
[6] = system: Aspergillus fungi; settings: in vitro
[7] = system: Candida species (including strains of Candida krusei, Candida glabrata, and Candida albicans resistant to fluconazole); settings: in vitro
[8] = system: Scedosporium and Fusarium species; settings: in vitro
[9] = system: rodent; settings: two-year studies
[10] = system: red blood cell; settings: i.v.
[11] = system: guinea pig; settings: indicates possibility of causing allergy
[12] = in vivo; remark: listed apart in the source
[13] = system: mice; remark: listed apart in the source
[14] = listed as sulfobutyl ether β-cyclodextrin sodium

For CCO [ethanol], the LD50 [1] is listed as “ethanol, in rat, i.v. LD50 = 1973 mg/kg;” and the LD50 [2] is listed as 1440 mg/kg.
In the case of CC(O)CO (stereo not shown) [propylene glycol], the LD50 [1] is listed as “i.v. LD50 ≧ 5000 mg/kg”, the “long term fertility study” value [3] is listed as “studies showed that no abnormity had” and the “NOAEL of maternal toxicity in teratogenic sensitive period” value [4] is listed as 1600 mg/kg/day. Ethanol could cause. The “NOAEL of teratogenic toxicity” value [4] was 1600 mg/kg/day. Ethanol could cause, the “NOAEL of maternal toxicity in teratogenic sensitive period” value [5] was 1600 mg/kg/day. Ethanol could cause and the “NOAEL of teratogenic toxicity” value [5] was 1600 mg/kg/day. Ethanol could cause.
In the case of C[C@@H](c1ncncc1F)[C@](O)(Cn1cncn1)c1ccc(F)cc1F [voriconazole], the “activity against all tested Aspergillus fungi” value [6] is given as “active”, the “activity against Candida species” value [7] is given as “active” and the solubility in water (pH 3) is given as 0.2 mg/mL (≈ 573 µM). The solubility in water (pH 7) was “almost insoluble” and the “activity against other pathogenic fungi such as Scedosporium and Fusarium species” value [8] was “in vitro activity”.
For “sulfobutyl ether β-cyclodextrin sodium [SBECD]”, the “carcinogenicity (pancreatic carcinoma)” value [9] is given as “carcinogenic”, the “concentration of significant heamolysis” value [10] is given as “at 0.04 mg/ml” and the “concentration at which mild hemolysis occurs” value [10, 14] is given as 0.02 mg/mL. For the same compound, the “concentration of significant heamolysis” value [10, 14] was 0.04 mg/mL, the LD50 [1] was “LD50 > 2000 mg/kg” and the “guinea pig maximization test (GPMT) result” value [11] was “positive”. The “findings on repeated administration” value [12] was “vacuale formation in the urinary-tract epithelium; also recorded: activated macrophages in liver and lung”, the LD50 [2] was “LD50 > 2000 mg/kg” and the “dose at which the weight of mice was significantly decreased” value [13] was 18 mg/kg/day or higher.
